This assay deals with 3T3-L1 adipocytes. In words: [3H]-2-deoxy-glucose uptake by adipocytes. It is filed as cell-based, Murine. Here is the method: To determine if one mechanism for glyceollins to improve the oral glucose challenge in a prediabetic model is by increasing the glucose uptake by fat, glyceollin pharmacology was studied in 3T3-L1 cells. Murine preadipocytes (Zen-Bio Inc.) were cultured using PM-1-L1 medium (Zen-Bio Inc.) containing Dulbecco's modified Eagle's medium (DMEM)/Ham's F-10 medium (1:1, v/v), HEPES 15 mM (pH 7.4), 10% (v/v) fetal bovine serum, penicillin (100 U/ml), streptomycin ([…]), and amphotericin B (0.25 μg/ml) in a humidified atmosphere (5% CO2/95% air). After 3-4 days, confluent cells were placed in differentiation medium (DM-2-L1, Zen-Bio Inc.) containing DMEM/Ham's F-10 medium (1:1, v/v), HEPES 15 mM (pH 7.4), 3% (v/v) fetal bovine serum, biotin (33 μM), pantothenate (17 μM), human insulin (100 nM), dexamethasone (1 μM), penicillin (100 U/ml), streptomycin (100 μg/ml), amphotericin B (0.25 μg/ml), isobutylmethylxanthine ([…]) and PPARγ agonist (10 μM) and further incubated in the humidified atmosphere for 3 days. […]
Adipocytes were rinsed in sterile, fresh KRH buffer (HEPES pH=7.4, 1 mM CaCl2, 1.2 mM MgSO4, 1 mM KH2PO4, 1.4 mM KCl, […], 130 mM NaCl), and then preincubated for 24 h in KRH buffer. […] The vials were mixed and counted for 10 min in an Applied Biosystems 1100 liquid scintillation counter using the factory preset window to detect tritium.

Values joined by “and” are separate entries in the source; they are usually repeats but may differ in a detail not shown here. Identical values can stand only once.

Consider 1 substance from patent US20140275233A1, “ACTIVATED SOY POD FIBER” (priority 2013, published 2014).

In general, EC50 refers to the concentration at which the effect is half-maximal. With insulin, the EC50 (30 min exposure at 37° C., 0.3-300 nM, n=6, read-out: EC50 of insulin-mediated glucose uptake) is 1.9 nM and 1.92 nM. For the same substance, under “insulin 0.3 nM-300 nM”, the “maximal stimulation of glucose uptake relative to basal” value was “about 3 times”.
